According to article PMC2172902 (The Journal of Cell Biology, 2003):
Peptide text beside a SMILES is read from it. * marks the point of attachment. Cbz = O=C(OCc1ccccc1)*

Test system: DLD-1 cells
Experiment: chromosome alignment in cultures treated with proteosome inhibitor
Assay type: cell-based, human
Settings: control cultures, 20 μM

Which proportion of metaphases does the source give for `CC(C)C[C@@H](C=O)NC(=O)[C@H](CC(C)C)NC(=O)[C@H](CC(C)C)NC(=O)OCc1ccccc1` [MG132] (Cbz-Leu-Leu-Leu-aldehyde) here?
Its proportion of metaphases is about 66%.

And the proportion of prometaphases?
The proportion of prometaphases was about 25%.
